Test results taken from patent US7939712B2, “Method to alleviate abiotic stress in plants by expression of mitochondrial-targeted purple acid phosphatase” (The Chinese University of Hong Kong, priority 2006, dated 2011).
Marks after values point to notes of the source that are not given here.

System: BY-2 cells
Assay: Analysis of mitochondria integrity (Rh123 staining) under NaCl or PEG stress
Type: cell-based, tobacco
Conditions: wild type BY-2 + 10 mM ascorbic acid
Protocol: Cells were treated with 200 mM NaCl for 1 h or 2% PEG for 1 h before staining with 10 μg/ml rhodamine-123 (Rh123) (R302, Molecular Probes) for 1 h. The signal of Rh123 was excited by green HeNe laser at 543 nm. The filter set HQ590/70 was used and confocal images were collected by the Bio-Rad Radiance 2100 system. 10-25 cells were counted for each sample for statistical analysis.
Transgenic BY-2 cell lines prepared as in Example 1 were cultured to express the GmPAP3 protein and subjected to treatment with sodium chloride or polyethylene glycol (PEG, osmotic stress) as explained above and in the description of the results as shown in FIGS. 3A-3L. The results on mitochondrial integrity were compared with the effect of the presence of ascorbic acid. The results are shown in the table below which summarizes the data in FIGS. 3A-3L. The data are the results of counting 10-25 cells and the experiment repeated 3 times. The percentage was presented as the mean value of 3 experiments±SD, where ** denotes statistical difference (p<0.01) from the wild type BY-2 cells under the same treatment, based on one-way ANOVA followed by the Turkey test.
Wild type (WT) BY-2 cells (FIGS. 3A-3C) and GmPAP3 transgenic BY-2 cell lines #20 and #29 (FIGS. 3G-3I and FIGS. 3J-3L, respectively) without ascorbic acid supplements and wild type BY-2 cells with 10 mM ascorbic acid supplements (+Asc) (FIGS. 3D-3F) were pre-treated in a cell culture medium without stress (FIGS. 3A, 3D, 3G and 3J), with 200 mM NaCl for 1 hr (FIGS. 3B, 3E, 3H and 3K), or with 2% PEG for 1 h (FIGS. 3C, 3F, 3I, 3L) before staining with 10 μg/mL Rh123 for another hour. The signal of Rh123 was observed using a confocal laser scanning microscope (see materials and methods). 10-25 cells were counted for each line. Scale bar=50 μm.

O=C1O[C@H]([C@@H](O)CO)C(O)=C1O [ascorbic acid]
% cells with intact mitochondria, NaCl (200 mM NaCl 1 h, mean of 3 experiments ± SD): 86.20 ± 3.3** % | % cells with intact mitochondria, PEG (2% PEG 1 h, mean of 3 experiments ± SD): 82.16 ± 3.7** % | % cells with intact mitochondria, Control (medium without stress): 100%
